Data as given in patent US20210122730A1, “GLUCOCORTICOID RECEPTOR MODULATORS” (ORIC Pharmaceuticals, Inc., priority 2017, published 2021).

How the values were obtained:
[1] = target: T1, PR (Homo sapiens, UniProt P06401); assay: In Vitro PR Luciferase Reporter Assay (antagonist mode, CHO-K1-PR-MMTV-Luc reporter cells); assay type: cell-based; conditions: antagonist assay with 20 nM Progesterone, 18-24 hours, read-out: PR antagonism IC50
T1 construct: expressed in transfected cells; host or cells: CHO-K1
T1 sequence (P06401 1-933): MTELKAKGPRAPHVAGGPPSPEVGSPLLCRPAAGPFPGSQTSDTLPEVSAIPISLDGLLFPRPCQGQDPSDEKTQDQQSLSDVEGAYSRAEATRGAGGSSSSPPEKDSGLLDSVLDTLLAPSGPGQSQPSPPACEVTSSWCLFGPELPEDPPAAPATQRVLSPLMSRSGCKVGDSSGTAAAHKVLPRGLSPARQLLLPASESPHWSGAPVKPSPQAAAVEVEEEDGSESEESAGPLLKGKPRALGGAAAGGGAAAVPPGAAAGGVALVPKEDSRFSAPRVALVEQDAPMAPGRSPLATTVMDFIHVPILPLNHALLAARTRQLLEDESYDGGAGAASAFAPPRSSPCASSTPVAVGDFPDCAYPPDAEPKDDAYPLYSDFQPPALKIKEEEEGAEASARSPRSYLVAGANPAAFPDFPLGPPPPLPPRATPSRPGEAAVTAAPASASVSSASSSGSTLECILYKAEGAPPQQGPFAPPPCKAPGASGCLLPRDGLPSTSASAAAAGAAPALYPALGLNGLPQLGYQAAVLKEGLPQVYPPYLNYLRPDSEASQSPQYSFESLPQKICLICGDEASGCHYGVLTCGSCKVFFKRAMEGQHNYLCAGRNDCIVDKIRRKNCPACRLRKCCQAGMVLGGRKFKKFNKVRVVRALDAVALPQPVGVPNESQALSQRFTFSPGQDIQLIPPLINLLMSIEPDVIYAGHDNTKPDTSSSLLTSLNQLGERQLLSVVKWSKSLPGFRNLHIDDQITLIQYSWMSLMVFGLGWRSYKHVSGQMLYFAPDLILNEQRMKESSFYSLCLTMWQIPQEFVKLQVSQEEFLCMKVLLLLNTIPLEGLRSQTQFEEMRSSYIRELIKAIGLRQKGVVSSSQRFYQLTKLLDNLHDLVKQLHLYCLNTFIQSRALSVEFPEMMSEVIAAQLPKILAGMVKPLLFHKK
Source text: Example C: In Vitro PR Luciferase Reporter Assay
Cell Line: CHO-KI-PR-MMTV-Luc reporter cells
Culture Media: DMEM (with phenol red)+1000FBS
Assay Media: DMEM (without phenol red)+1000CSS
Culture CHO-Kl-PR-MMTV-Luc reporter cells in 15 cm plates in Culture Media at conditions less than 90% confluence.
Prepared 200×DMSO 1:8 serial dilutions of control and test compounds in 96-well non-sterile V bottom plate in DMSO, 8 serial dilutions for each compound.
Prepared 5× Assay Media diluted compound serial dilutions in 96-well non-sterile V bottom plate: Add 97.5 μL/well of Assay Media into 96-well then add 2.5 μl of 200× concentration of compounds and mix well.
Added compounds: 5 μl of assay media diluted compounds were added to appropriate wells and followed a quick spin (1000 rpm, 10 sec) to bring media and cells to the bottom of plate. The plates were covered with SealMate film to avoid evaporation and placed in 37° C. incubator for approximately 18-24 hours.
Read plates: Equilibrated appropriate amount of Promega One-Glo luciferase reagent to room temperature. Removed the plates from incubator and added 25 μL of One-Glo luciferase reagent/well by multiple channel pipette and read the plates with Tecan F500 luminometer within 3 minutes.
The ability of exemplary compounds disclosed herein to inhibit PR activity was quantified and the respective IC50 value was determined. Table 4 provides the cellular IC50 values of exemplary compounds disclosed herein.

[2] = target: T2, GR (Homo sapiens, UniProt P04150); assay: In Vitro GR Luciferase Reporter Assay (antagonist mode, CHO-K1-GR-MMTV-Luc reporter cells); assay type: cell-based
T2 construct: expressed in transfected cells; host or cells: CHO-K1
T2 sequence (P04150 1-777): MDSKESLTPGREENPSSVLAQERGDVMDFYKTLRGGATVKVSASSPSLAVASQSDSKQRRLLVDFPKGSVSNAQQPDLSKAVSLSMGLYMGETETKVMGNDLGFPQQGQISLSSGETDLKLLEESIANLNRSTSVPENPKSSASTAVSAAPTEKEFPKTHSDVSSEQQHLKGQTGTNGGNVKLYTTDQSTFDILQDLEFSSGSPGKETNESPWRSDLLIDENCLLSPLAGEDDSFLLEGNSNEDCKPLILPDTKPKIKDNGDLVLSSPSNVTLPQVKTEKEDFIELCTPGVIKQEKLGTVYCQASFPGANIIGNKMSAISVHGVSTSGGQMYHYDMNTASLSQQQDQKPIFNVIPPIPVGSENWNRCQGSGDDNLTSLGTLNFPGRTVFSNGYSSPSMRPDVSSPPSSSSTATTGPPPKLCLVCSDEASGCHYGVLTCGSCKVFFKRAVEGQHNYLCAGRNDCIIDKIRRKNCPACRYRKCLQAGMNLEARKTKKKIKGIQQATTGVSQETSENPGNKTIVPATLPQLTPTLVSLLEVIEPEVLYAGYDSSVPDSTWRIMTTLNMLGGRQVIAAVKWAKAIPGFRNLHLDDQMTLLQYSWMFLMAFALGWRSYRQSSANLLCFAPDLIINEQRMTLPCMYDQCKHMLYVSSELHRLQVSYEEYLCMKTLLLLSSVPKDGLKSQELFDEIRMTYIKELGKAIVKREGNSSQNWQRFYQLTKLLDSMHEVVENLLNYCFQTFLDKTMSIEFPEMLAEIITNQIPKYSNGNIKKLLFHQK
Method in brief: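 CHO-K1-GR-MMTV-Luc cells in phenol red-free DMEM with 10% CSS, stimulated with 10 nM dexamethasone (final) and treated with 8-point 1:5 compound dilutions for about 18-24 h at 37° C. Luciferase measured by OneGlo luminescence; IC50 derived for inhibition of GR activity.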

[3] = antagonist mode, 10 nM Dexamethasone
[4] = antagonist assay with 10 nM Dexamethasone, 18-24 hours

Compound | IC50 [1] | IC50 [2, 3] | IC50 [2, 4]
Cn1ccc(S(=O)(=O)N(CC(F)(F)F)[C@H]2CCC3=Cc4c(cnn4-c4ccc(F)cc4)C[C@]3(C(=O)c3cc(C(F)(F)F)ccn3)C2)n1 [Example 111, N-((4aS,6S)-1-(4-Fluorophenyl)-4a-(4-(trifluoromethyl)picolinoyl)-4,4a,5,6,7,8-hexahydro-1H-benzo[f]indazol-6-yl)-1-methyl-N-(2,2,2-trifluoroethyl)-1H-pyrazole-3-sulfonamide] | > 5000 nM | ≤ 100 nM | 
Cn1cc(S(=O)(=O)N(C2CC2)[C@H]2CCC3=Cc4c(cnn4-c4ccc(F)cc4)C[C@]3(C(=O)c3cc(C(F)(F)F)ccn3)C2)cn1 [Example 88, N-cyclopropyl-N-((4aS,6S)-1-(4-fluorophenyl)-4a-(4-(trifluoromethyl)picolinoyl)-4,4a,5,6,7,8-hexahydro-1H-benzo[f]indazol-6-yl)-1-methyl-1H-pyrazole-4-sulfonamide] | > 5000 nM |  | ≤ 100 nM
CN([C@H]1CCC2=Cc3c(cnn3-c3ccc(F)cc3)C[C@]2(C(=O)c2cc(C(F)(F)F)ccn2)C1)S(=O)(=O)c1ccc(F)cc1 [Example 5, 4-Fluoro-N-((4aS,6S)-1-(4-fluorophenyl)-4a-(4-(trifluoromethyl)picolinoyl)-4,4a,5,6,7,8-hexahydro-1H-benzo[f]indazol-6-yl)-N-methylbenzenesulfonamide] | > 5000 nM |  | ≤ 100 nM

The remaining lines, values ahead:

IC50 [1] | IC50 [2, 3] | IC50 [2, 4] | Compound
> 5000 nM | ≤ 100 nM |  | O=C(c1cc(Cl)ccn1)[C@]12Cc3cnn(-c4ccc(F)cc4)c3C=C1CC[C@H](N(C1CC1)S(=O)(=O)c1ccc(F)cc1)C2 [Example 232, N-((4aS,6S)-4a-(4-chloropicolinoyl)-1-(4-fluorophenyl)-4,4a,5,6,7,8-hexahydro-1H-benzo[f]indazol-6-yl)-N-cyclopropyl-4-fluorobenzenesulfonamide]
> 5000 nM | ≤ 100 nM |  | Cn1ccc(S(=O)(=O)[C@H]2CCC3=Cc4c(cnn4-c4ccc(F)cc4)C[C@]3(C(=O)c3cc(C(F)(F)F)ccn3)C2)n1 [Example 113, ((4aS,6S)-1-(4-Fluorophenyl)-6-((1-methyl-1H-pyrazol-3-yl)sulfonyl)-1,4,5,6,7,8-hexahydro-4aH-benzo[f]indazol-4a-yl)(4-(trifluoromethyl)pyridin-2-yl)methanone]
> 5000 nM | ≤ 100 nM |  | Cn1cc(S(=O)(=O)N(CC(C)(C)O)[C@H]2CCC3=Cc4c(cnn4-c4ccc(F)cc4)C[C@]3(C(=O)c3cc(F)ccn3)C2)cn1 [Example 248, N-((4aS,6S)-1-(4-fluorophenyl)-4a-(4-fluoropicolinoyl)-4,4a,5,6,7,8-hexahydro-1H-benzo[f]indazol-6-yl)-N-(2-hydroxy-2-methylpropyl)-1-methyl-1H-pyrazole-4-sulfonamide]
